Test results from patent US9624214B2, “Amino-substituted imidazo[1,2-a]pyridinecarboxamides and their use” (BAYER PHARMA AKTIENGESELLSCHAFT, priority 2012, dated 2017).

target: T1, recombinant guanylate cyclase reporter cell line (Rattus norvegicus, UniProt P19686+P20595); test: B-2. Action on recombinant guanylate cyclase reporter cell line; assay type: cell-based; details: MEC = minimal effective concentration; in some cases mean values from individual determinations
T1 construct: expressed in transfected cells
T1 sequence (P20595 1-619): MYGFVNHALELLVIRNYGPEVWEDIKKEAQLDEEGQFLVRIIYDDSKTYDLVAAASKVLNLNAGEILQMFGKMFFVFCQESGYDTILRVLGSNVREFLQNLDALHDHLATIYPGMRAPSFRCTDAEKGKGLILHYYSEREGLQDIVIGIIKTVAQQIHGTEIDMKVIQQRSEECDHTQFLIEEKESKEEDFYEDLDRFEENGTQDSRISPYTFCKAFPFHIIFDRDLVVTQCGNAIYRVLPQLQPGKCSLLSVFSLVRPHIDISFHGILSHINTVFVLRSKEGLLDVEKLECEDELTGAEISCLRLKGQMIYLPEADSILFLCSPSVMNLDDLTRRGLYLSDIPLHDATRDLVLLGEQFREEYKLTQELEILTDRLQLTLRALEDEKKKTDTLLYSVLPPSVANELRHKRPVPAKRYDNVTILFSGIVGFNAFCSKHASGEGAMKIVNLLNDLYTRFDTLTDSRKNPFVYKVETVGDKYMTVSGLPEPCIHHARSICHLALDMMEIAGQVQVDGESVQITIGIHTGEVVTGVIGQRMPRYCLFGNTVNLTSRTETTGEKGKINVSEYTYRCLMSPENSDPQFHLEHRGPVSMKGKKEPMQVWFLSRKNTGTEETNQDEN
T1 sequence (P19686 1-690): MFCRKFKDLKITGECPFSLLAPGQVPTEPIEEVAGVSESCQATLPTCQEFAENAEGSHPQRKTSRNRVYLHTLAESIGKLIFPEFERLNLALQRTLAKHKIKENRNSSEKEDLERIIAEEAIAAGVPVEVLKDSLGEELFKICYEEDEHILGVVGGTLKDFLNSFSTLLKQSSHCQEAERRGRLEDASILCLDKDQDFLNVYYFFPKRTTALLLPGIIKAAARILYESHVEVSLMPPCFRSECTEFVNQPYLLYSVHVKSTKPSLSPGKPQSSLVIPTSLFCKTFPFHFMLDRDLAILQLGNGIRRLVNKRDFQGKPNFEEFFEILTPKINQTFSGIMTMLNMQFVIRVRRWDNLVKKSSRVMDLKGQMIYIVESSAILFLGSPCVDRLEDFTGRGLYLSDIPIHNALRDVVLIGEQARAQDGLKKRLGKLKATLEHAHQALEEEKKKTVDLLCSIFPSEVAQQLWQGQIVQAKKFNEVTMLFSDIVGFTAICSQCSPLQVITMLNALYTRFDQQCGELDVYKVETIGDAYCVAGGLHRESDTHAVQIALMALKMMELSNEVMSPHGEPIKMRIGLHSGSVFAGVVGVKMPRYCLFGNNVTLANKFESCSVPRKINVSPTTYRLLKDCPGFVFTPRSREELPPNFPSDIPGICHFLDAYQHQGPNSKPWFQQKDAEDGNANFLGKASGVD
Method in brief: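 Read-out: MEC (minimal effective concentration) in cells. Reporter line carries recombinant sGC. Some values are averages of single runs.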

Row | MEC [µM] | Structure (SMILES)
1 | 0.3 | CCC(C)(N)CNC(=O)c1c(C)nc2c(OCc3c(F)cccc3F)cc(OC)cn12 (single isomer, unassigned; enantiomer a) [Example 279, ent-N-(2-amino-2-methylbutyl)-8-[(2,6-difluorobenzyl)oxy]-6-methoxy-2-methylimidazo[1,2-a]pyridine-3-carboxamide (Enantiomer A)]
2 | 0.30 | Cc1nc2c(OCc3c(F)cccc3F)cccn2c1C(=O)NCC(N)C(F)(F)F (single isomer, unassigned) [Example 209, ent-N-(2-Amino-3,3,3-trifluoropropyl)-8-[(2,6-difluorobenzyl)oxy]-2-methylimidazo[1,2-a]-pyridine-3-carboxamide]
3 | 0.10 | Cc1cc(OCc2c(F)cccc2F)c2nc(C)c(C(=O)NCC(N)CC(F)(F)F)n2c1 (single isomer, unassigned) [Example 129, ent-N-(2-Amino-4,4,4-trifluorobutyl)-8-[(2,6-difluorobenzyl)oxy]-2,6-dimethylimidazo[1,2-a]-pyridine-3-carboxamide]
4 | 0.65 | Cc1cc(OCc2c(F)cccc2F)c2nc(C)c(C(=O)NCC(C)(N)CO)n2c1 (single isomer, unassigned; enantiomer b) [Example 269, ent-N-(2-Amino-3-hydroxy-2-methylpropyl)-8-[(2,6-difluorobenzyl)oxy]-2,6-dimethylimidazo-[1,2-a]pyridine-3-carboxamide (Enantiomer B)]
5 | 0.30 | Cc1nc2c(OCc3c(F)cccc3F)cc(Cl)cn2c1C(=O)NCC(C)N (racemic) [Example 23, rac-N-(2-aminopropyl)-6-chloro-8-[(2,6-difluorobenzyl)oxy]-2-methylimidazo[1,2-a]-pyridine-3-carboxamide]
6 | 1.00 | Cc1nc2c(OCc3c(F)cccc3F)cc(Cl)cn2c1C(=O)NCC(N)CC(F)(F)F (single isomer, unassigned) [Example 193, ent-N-(2-Amino-4,4,4-trifluorobutyl)-6-chloro-8-[(2,6-difluorobenzyl)oxy]-2-methylimidazo[1,2-a]pyridine-3-carboxamide]
7 | 0.30 | Cc1cc(OCc2c(F)cccc2F)c2nc(C)c(C(=O)NCC(C)(N)C(F)(F)F)n2c1 (racemic) [Example 239, rac-N-(2-Amino-3,3,3-trifluoro-2-methylpropyl)-8-[(2,6-difluorobenzyl)oxy]-2,6-dimethyl-imidazo[1,2-a]pyridine-3-carboxamide]
8 | 0.3 | Cc1cc(OCc2c(F)cccc2F)c2nc(C)c(C(=O)NCC(C)(N)CF)n2c1 (single isomer, unassigned; enantiomer a) [Example 283, ent-N-(2-amino-3-fluoro-2-methylpropyl)-8-[(2,6-difluorobenzyl)oxy]-2,6-dimethylimidazo[1,2-a]pyridine-3-carboxamide (Enantiomer A)]

Continued, molecule first:

Row | Structure (SMILES) | MEC [µM]
9 | Cc1cc(OCc2c(F)cccc2F)c2nc(C)c(C(=O)NCCN(CC(F)F)C3CC3)n2c1 [Example 164, N-{2-[cyclopropyl(2,2-difluoroethyl)amino]ethyl}-8-[(2,6-difluorobenzyl)oxy]-2,6-dimethylimidazo[1,2-a]-pyridine-3-carboxamide] | 0.10
10 | Cc1cc(OCc2c(F)cccc2F)c2nc(C)c(C(=O)NC(CN)c3csc4ccccc34)n2c1 (racemic) [Example 389, rac-N-[2-amino-1-(1-benzothiophen-3-yl)ethyl]-8-[(2,6-difluorobenzyl)oxy]-2,6-dimethylimidazo[1,2-a]pyridine-3-carboxamide] | 1.00
11 | COC(=O)[C@@H](N)CCCCNC(=O)c1c(C)nc2c(OCc3c(F)cccc3F)cc(C)cn12 [Example 294, Methyl N^6-({8-[(2,6-difluorobenzyl)oxy]-2,6-dimethylimidazo[1,2-a]pyridin-3-yl}carbonyl)-L-lysinate] | 0.065
12 | Cc1nc2c(OCc3c(F)cccc3F)cc(Cl)cn2c1C(=O)NC1CNCc2ccccc21 (single isomer, unassigned; ent-6) [Example 108, ent-6-chloro-8-[(2,6-difluorobenzyl)oxy]-2-methyl-N-(1,2,3,4-tetrahydroisoquinolin-4-yl)imidazo[1,2-a]pyridine-3-carboxamide] | 1.00
13 | Cc1cc(OCc2c(F)cccc2F)c2nc(C)c(C(=O)NCCN3CCC(F)(F)CC3)n2c1 [Example 163, 8-[(2,6-difluorobenzyl)oxy]-N-[2-(4,4-difluoro-piperidin-1-yl)ethyl]-2,6-dimethylimidazo[1,2-a]pyridine-3-carboxamide] | 0.30
14 | Cc1cc(OCc2c(F)cccc2F)c2nc(C)c(C(=O)NCC(N)c3cccc(OCCO)c3)n2c1 (racemic) [Example 367, rac-N-{2-amino-2-[3-(2-hydroxyethoxy)phenyl]ethyl}-8-[(2,6-difluorobenzyl)oxy]-2,6-dimethylimidazo[1,2-a]pyridine-3-carboxamide] | 3.00
15 | Cc1cc(OCc2c(F)cccc2F)c2nc(C)c(C(=O)NC3(C)CCC3(C)N)n2c1 (single isomer, unassigned; enantiomer a) [Example 336, ent-N-[(2-amino-1,2-dimethylcyclobutyl]-8-[(2,6-difluorobenzyl)oxy]-2,6-dimethylimidazo[1,2-a]pyridine-3-carboxamide (Enantiomer A)] | 0.30
16 | Cc1nc2c(OCc3cccc(F)c3F)cccn2c1C(=O)NC(CN)c1ccc(F)c(F)c1 (stereo not drawn) [Example 99, ent-N-[2-amino-1-(3,4-difluorophenyl)ethyl]-8-[(2,3-difluorobenzyl)oxy]-2-methylimidazo[1,2-a]pyridine-3-carboxamide] | 1.00
17 | Cc1nc2c(OCc3c(F)cccc3F)cccn2c1C(=O)NC1CNc2ccccc21 (racemic) [Example 28, rac-8-[(2,6-difluorobenzyl)oxy]-N-(2,3-dihydro-1H-indol-3-yl)-2-methylimidazo[1,2-a] pyridine-3-carboxamide] | 0.30
18 | Cc1nc2c(OCc3c(F)cccc3F)cccn2c1C(=O)N[C@H](C)CN1CCOCC1 [Example 170, 8-[(2,6-difluorobenzyl)oxy]-2-methyl-N-[(2R)-1-(morpholin-4-yl)propan-2-yl]imidazo[1,2-a]-pyridine-3-carboxamide] | 3.00
19 | Cc1nc2c(OCc3c(F)cccc3F)cccn2c1C(=O)NCC(N)C(C)C (single isomer, unassigned) [Example 229, ent-N-(2-Amino-3-methylbutyl)-8-[(2,6-difluorobenzyl)oxy]-2-methylimidazo[1,2-a]pyridine-3-carboxamide] | 1.00
20 | CCC(C)(N)CNC(=O)c1c(C)nc2c(OCc3c(F)cccc3F)cccn12 (racemic) [Example 254, rac-N-(2-Amino-2-methylbutyl)-8-[(2,6-difluorobenzyl)oxy]-2-methylimidazo[1,2-a]pyridine-3-carboxamide] | 0.30
21 | Cc1nc2c(OCc3c(F)cccc3F)cccn2c1C(=O)NC(C)[C@@H](C)N (stereo partly drawn) [Example 121, N-[(3R)-3-Aminobutan-2-yl]-8-[(2,6-difluorobenzyl)oxy]-2-methylimidazo[1,2-a]pyridine-3-carboxamide] | 0.30
22 | Cc1nc2c(OCc3c(F)cccc3F)cccn2c1C(=O)NC1CC2CCC(C1)N2C (stereo not shown) [Example 91, 8-[(2,6-difluorobenzyl)oxy]-2-methyl-N-(8-methyl-8-azabicyclo[3.2.1]oct-3-yl)imidazo[1,2-a]pyridine-3-carboxamide] | 1.00
